Here are results for 44 compounds from patent publication US7678820B2, “Hetero compound” (Astellas Pharma Inc., priority 2006, dated 2010).

Where a name gives a salt, the structure may show the parent alone. Read-outs that look alike come from different tables or passages of the source. Bounds are passed on as bounds.

For assay [1], the system named is number of the lymphocytes in peripheral blood. Briefly: Evaluation of peripheral blood lymphopenia in rat. The class given is in vivo. To be noted: Rattus norvegicus, Lymphocyte, read-out: ED50 value after 24 hours. The protocol:
2) Evaluation of Peripheral Blood Lymphopenia in Rat
The peripheral blood lymphopenia in rat was measured at 24 hours after oral administration in the following manner. Six- to ten-week-old male Lewis rats (Japan Charles river laboratories) were randomly divided into the groups (n=3), and the compound of the present invention was suspended in 0.5% methyl cellulose-containing distilled water, and orally administered with a sonde. At 24 hours after administration, under ether anesthesia, 0.2 ml of blood was collected from ocular fundus. To the blood sample were immediately added EDTA/4K and heparin to prevent clotting, and the number of the lymphocytes in blood was measured with an automatic haematology analyzer (Sysmex Corp.; XT-2000i). For the reduction of the number of the lymphocytes in peripheral blood by the compound of the present invention, the percentage with the number of the lymphocytes in groups administered with 0.5% methyl cellulose-containing distilled water being set at 100%, as performed at the same time was used, and the dose to cause 50% reduction of the number of the lymphocytes in peripheral blood by administration of the compound of the present invention was defined an ED50 value (mg/kg).

Assay [2] deals with T1, human S1P1 (Homo sapiens, UniProt P21453).
T1 construct: expressed in transfected cells; membrane fraction used
Briefly: GTP[γ-35S] bond assay using the membrane of a human S1P1 expressing cell (S1P1 agonist activity). The class given is biochemical. To be noted: membrane of human S1P1 expressing CHO cell; concentration causing 50% of the maximum GTP[γ-35S] reaction. The protocol: 1) Evaluation of a Receptor Agonist Activity by a GTP[γ-^35S] Bond Assay Using the Membrane of a Human S1P1 Expressing Cell
The in vitro S1P1 agonist activity of the compound of the present invention was evaluated by the increase in the functional bonding activity into the G-Protein of a GTP[γ-^35S] using the membrane of a human S1P1 expressing cell. A cDNA encoding a human S1P1 was cloned from a human colorectal cDNA library, and introduced to an expression vector pcDNA3.1 to construct a S1P1-pcDNA3.1. Then, by Lipofectamine 2000 (GIBCO), the S1P1-pcDNA3.1 was transfected into a CHO cell, and cultured in a Ham's F-12 culture medium containing 10% fetal bovine serum, 100 U/mL Penicillin, 100 μg/mL Streptomycin, and 1 mg/mL G418 disulfate, to obtain a stable, G418-resistant strain. The cultured human S1P1 expressing cells were isolated in a 1 mM EDTA/2Na-containing PBS, and disrupted under ice-cooling by a homogenizer made of glass in a 1 mM Tris HCl (pH 7.4) buffer solution containing 0.1 mM EDTA and a […]. It was centrifuged at […], and a supernatant was further centrifuged at 4° C. for 60 min at 100,000×g, and suspended in a 10 mM Tris HCl (pH 7.4) buffer solution containing 1 mM EDTA. The obtained membrane (0.13 mg/mL) and […] GTP[γ-^35S] […] The FilterMate was dried at 50° C. for 60 min, and Microscinti-o (Packard) was added thereto for measurement by a liquids scintillation counter for a microplate (Packard, TOP count). For evaluation of the human S1P1 agonist activity of the compound of the present invention and the comparative compound, the percentages with the rate of a maximum reaction to make the GTP[γ-^35S] bonds saturated in the presence of the compound being set at 100%, and the rate of the reaction of the GTP[γ-^35S] bonds in the absence of the compound being set at 0% was used, a non-linear regression curve was plotted, and a concentration to cause an agonist activity operating 50% of the maximum reaction was defined as an EC50 value (nM).

Setting [3] is: male Lewis rats, oral administration, 50% reduction of the number of lymphocytes in peripheral blood at 24 hours after administration.

One may read the ED50 as the midpoint of the dose-response relation. One may read the EC50 as the midpoint of the concentration-response curve. Higher therefore signals weaker potency.

T1 sequence (P21453 whole entry): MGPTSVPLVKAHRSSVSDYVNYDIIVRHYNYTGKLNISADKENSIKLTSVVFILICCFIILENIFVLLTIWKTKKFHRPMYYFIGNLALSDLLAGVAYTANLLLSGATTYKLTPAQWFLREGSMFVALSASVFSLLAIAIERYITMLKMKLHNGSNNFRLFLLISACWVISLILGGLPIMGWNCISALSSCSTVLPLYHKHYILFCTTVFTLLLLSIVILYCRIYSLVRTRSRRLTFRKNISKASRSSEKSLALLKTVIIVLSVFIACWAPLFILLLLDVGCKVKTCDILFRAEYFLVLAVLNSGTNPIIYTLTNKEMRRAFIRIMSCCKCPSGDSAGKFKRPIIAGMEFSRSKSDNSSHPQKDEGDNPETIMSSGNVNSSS

As to `CNc1ncccc1-c1noc(-c2ccc(OC(C)C(F)(F)F)c(C(F)(F)F)c2)n1` (centres unmarked) [Comparative Compound 1], the ED50 in assay [1] (setting [3]) was determined as 1.4 mg/kg. Consider `CC(Oc1ccc(-c2nc(-c3cccnc3N)no2)cc1C(F)(F)F)C(F)(F)F` (centres unmarked) [Comparative Compound 2], for which the median effective dose (ED50) in assay [1] (po, 24 h) was determined as 8.8 mg/kg.

For the compound `Cc1ccc(Cl)cc1-c1noc(-c2ccc(OC(C)C(F)(F)F)c(C(F)(F)F)c2)n1` (centres unmarked) [Comparative Compound 3], in assay [1] (setting [3]), the 50% effective dose (ED50) amounted to 3.7 mg/kg. The same measure, in the same setting: for `CNc1ncccc1-c1noc(-c2ccc(O[C@@H](C)C(F)(F)F)c(Cl)c2)n1.Cl` [Comparative Compound 4] the value was greater than 10 mg/kg. Take `CNc1ncccc1-c1noc(-c2ccc(OC(C)C(F)(F)F)c(Cl)c2)n1.Cl` (centres unmarked) [Comparative Compound 5]: in assay [1] (setting [3]), the median effective dose (ED50) was greater than 10 mg/kg. Compound `Cc1nc2cc(-c3noc(-c4ccc(OC(C)C(F)(F)F)c(C(F)(F)F)c4)n3)ccc2[nH]1` (centres unmarked) [Example 2, 2-methyl-5-{5-[3-(trifluoromethyl)-4-(2,2,2-trifluoro-1-methylethoxy)phenyl]-1,2,4-oxadiazol-3-yl}-1H-benzimidazole hydrochloride] displayed an EC50 in assay [2] of 13 nM. Take `CC(C)Oc1ccc(-c2nc(-c3cccc4c3ccn4CC(N)=O)no2)cc1C(F)(F)F` [Example 5, 2-(4-{5-[4-isopropoxy-3-(trifluoromethyl)phenyl]-1,2,4-oxadiazol-3-yl}-1H-indol-1-yl)acetamide]: in assay [2], the concentration giving a half-maximal response (EC50) turned out to be 5.5 nM. Same read-out and setting: for `NC(=O)Cn1ccc2c(-c3noc(-c4ccc(OC(CF)CF)c(Cl)c4)n3)cccc21` [Example 6, 2-[4-(5-{3-chloro-4-[2-fluoro-1-(fluoromethyl)ethoxy]phenyl}-1,2,4-oxadiazol-3-yl)-1H-indol-1-yl]acetamide] the value was 1.2 nM. In assay [2], `CC(C)Oc1ccc(-c2nc(-c3cccc4c3ccn4CC(N)=O)no2)cc1Cl` [Example 8] showed a concentration for a half-maximal effect (EC50) of 5.4 nM. In assay [2], `C[C@H](Oc1ccc(-c2nc(-c3cccc4c3ccn4CC(N)=O)no2)cc1C(F)(F)F)C(F)(F)F` [Example 12, 2-[4-(5-{3-(trifluoromethyl)-4-[(1S)-2,2,2-trifluoro-1-methylethoxy]phenyl}-oxadiazol-3-yl)-1H-indol-1-yl]acetamide] registered an EC50 of 4.7 nM.

Take `CC(=O)N1CCc2c(-c3noc(-c4ccc(OC(C)C(F)(F)F)c(C(F)(F)F)c4)n3)cccc21` (centres unmarked) [Example 15, 1-acetyl-4-{5-[3-(trifluoromethyl)-4-(2,2,2-trifluoro-1-methylethoxy)phenyl]-1,2,4-oxadiazol-3-yl}indoline]: the EC50 in assay [2] turned out to be 2.1 nM. Compared with the last compound, the EC50 is about 2.2-fold lower.

Consider `CC(Oc1ccc(-c2nc(-c3ccc4[nH]c(CCS(C)(=O)=O)nc4c3)no2)cc1C(F)(F)F)C(F)(F)F` (centres unmarked) [Example 23, 2-[2-(methylsulfonyl)ethyl]-5-{5-[3-(trifluoromethyl)-4-(2,2,2-trifluoro-1-methylethoxy)phenyl]-1,2,4-oxadiazol-3-yl}-1H-benzimidazole hydrochloride], for which it took 6.8 nM to reach a half-maximal effect in assay [2] (EC50). Same read-out and setting: as for `CC(Oc1ccc(-c2nc(-c3cccc4c3CCN4)no2)cc1C(F)(F)F)C(F)(F)F` (centres unmarked) [Example 26, 4-{5-[3-(trifluoromethyl)-4-(2,2,2-trifluoro-1-methylethoxy)phenyl]-1,2,4-oxadiazol-3-yl}indoline], the figure is 4.7 nM; as for `Cc1c(-c2noc(-c3ccc(OC(C)C(F)(F)F)c(C(F)(F)F)c3)n2)ccc2[nH]cnc12` (centres unmarked) [Example 37], 5.4 nM. Take `CC(Oc1ccc(-c2nc(-c3ccc4[nH]cnc4c3)no2)cc1C(F)(F)F)C(F)(F)F` (centres unmarked) [Example 48]: a half-maximal effect in assay [2] (EC50) was put at 6.5 nM.

In assay [2], `CC(Oc1ccc(-c2nc(-c3ccc4[nH]c(N)nc4c3)no2)cc1C(F)(F)F)C(F)(F)F` (centres unmarked) [Example 51] displayed a concentration for a half-maximal effect (EC50) of 13 nM. Still for that read-out and setting: for `CC(Oc1ccc(-c2nc(-c3ccc4[nH]cnc4c3)no2)cc1Cl)C(F)(F)F` (centres unmarked) [Example 53] the value was 5.8 nM; for `CC(Oc1ccc(-c2nc(-c3ccc4nc[nH]c4c3)no2)cc1C#N)C(F)(F)F` (centres unmarked) [Example 54], 2.3 nM; for `CC(Oc1ccc(-c2nc(-c3cccc4nccn34)no2)cc1C(F)(F)F)C(F)(F)F` (centres unmarked) [Example 59], 3.8 nM. Compound `CC(Oc1ccc(-c2nc(-c3ccnc4[nH]ccc34)no2)cc1C(F)(F)F)C(F)(F)F` (centres unmarked) [Example 60] registered an EC50 in assay [2] of 2.1 nM. Against the preceding compound, the EC50 is about 1.8-fold lower. For the compound `CC(Oc1ccc(-c2nc(-c3ccc4nc[nH]c4c3)no2)cc1Br)C(F)(F)F` (centres unmarked) [Example 64], the 50% effective concentration (EC50) in assay [2] was 5.7 nM. The same measure, in the same setting: as for `CC(Oc1ccc(-c2nc(-c3ccc4cn[nH]c4c3)no2)cc1C(F)(F)F)C(F)(F)F` (centres unmarked) [Example 65], the figure is 4 nM; as for `CC(Oc1ccc(-c2nc(-c3cccc4[nH]ccc34)no2)cc1C(F)(F)F)C(F)(F)F` (centres unmarked) [Example 67], 3.7 nM; as for `NC(=O)Cn1ccc2c(-c3noc(-c4ccc(C5CCCC5)c(C(F)(F)F)c4)n3)cccc21` [Example 81], 5.9 nM. Same read-out and setting: for `CC(Oc1ccc(-c2nc(-c3ccc4nc[nH]c4c3)no2)cc1C(F)F)C(F)(F)F` (centres unmarked) [Example 87] the value was 3.7 nM; for `C=CCOc1ccc(-c2nc(-c3ccc4[nH]cnc4c3)no2)cc1C(F)(F)F` [Example 106], 8.7 nM; for `FC(F)COc1ccc(-c2nc(-c3ccc4[nH]cnc4c3)no2)cc1C(F)(F)F` [Example 110], 6.2 nM. `C[C@@H](Oc1ccc(-c2nc(-c3ccc4[nH]cnc4c3)no2)cc1C(F)(F)F)C(F)(F)F` [Example 120] had an EC50 in assay [2] of 4.6 nM. In assay [2], `FC(F)(F)c1cc(-c2nc(-c3ccc4nc[nH]c4c3)no2)ccc1Oc1ccccc1` [Example 121] returned an EC50 of 12 nM. With `NC(=O)Cn1ccc2c(-c3noc(-c4cnc(OC(CF)CF)c(Cl)c4)n3)cccc21` [Example 143], a half-maximal response in assay [2] (EC50) required 5.4 nM. The compound `Cc1cc(-c2nc(-c3cccc4c3ccn4CC(N)=O)no2)ccc1O[C@@H](C)C(F)(F)F` [Example 147] showed a 50% effective concentration (EC50) in assay [2] of 3.2 nM. Turning to `CC(Oc1ccc(-c2nc(-c3cccc4c3ccn4C)no2)cc1C(F)(F)F)C(F)(F)F` (centres unmarked) [Example 151], a half-maximal effect in assay [2] (EC50) was put at 11 nM. In assay [2], `CC(Oc1ccc(-c2nc(-c3cccc4c3CCN4C)no2)cc1C(F)(F)F)C(F)(F)F` (centres unmarked) [Example 152] displayed an EC50 of 7.6 nM.

The compound `NC(=O)Cn1ccc2c(-c3noc(-c4ccc(OC(CF)CF)c(C(F)(F)F)c4)n3)cccc21` [Example 158] gave a concentration giving a half-maximal response (EC50) in assay [2] of 1.8 nM. Turning to `CC(Oc1ccc(-c2nc(-c3cccc4c3ccn4CC(N)=O)no2)cc1C#N)C(F)(F)F` (centres unmarked) [Example 163], the concentration for a half-maximal effect (EC50) in assay [2] worked out at 1.9 nM. Compound `CC(Oc1ccc(-c2nc(-c3cccc4c3ccn4CC(N)=O)no2)cc1Cl)C(F)(F)F` (centres unmarked) [Example 164] came in with a half-maximal effective concentration (EC50) in assay [2] of 2.8 nM. On the same count and under the same terms, as for `C[C@H](Oc1ncc(-c2nc(-c3cccc4c3ccn4CC(N)=O)no2)cc1Cl)C(F)(F)F` [Example 173], the figure is 4.3 nM. The compound `CC(Oc1ccc(-c2nc(-c3cccc4c3ccn4CC(N)=O)no2)cc1C(F)(F)F)C(F)(F)F` (centres unmarked) [Example 181] gave a concentration giving a half-maximal response (EC50) in assay [2] of 4.7 nM. This EC50 and that of the compound before are within 1.5-fold of each other.

The compound `COCC(=O)n1ccc2c(-c3noc(-c4ccc(OC(C)C(F)(F)F)c(C(F)(F)F)c4)n3)cccc21` (centres unmarked) [Example 182] yielded a concentration giving a half-maximal response (EC50) in assay [2] of 4.2 nM.

Compound `Cc1cc(-c2nc(-c3cccc4c3ccn4CC(=O)NCCO)no2)ccc1O[C@@H](C)C(F)(F)F` [Example 193] yielded a concentration giving a half-maximal response (EC50) in assay [2] of 6.8 nM. This EC50 lies about 1.6-fold higher than the previous one. On to `C[C@H](Oc1ccc(-c2nc(-c3cccc4c3ccn4CC(=O)NCCO)no2)cc1C(F)(F)F)C(F)(F)F` [Example 194], for which the response in assay [2] was half-maximal at 2 nM (EC50). On the same count and under the same terms, as for `CC(C)Oc1ccc(-c2nc(-c3cccc4c3ccn4CC(=O)NCCO)no2)cc1C(F)(F)F` [Example 196], the figure is 5.3 nM; as for `O=C(Cn1ccc2c(-c3noc(-c4ccc(OC(CF)CF)c(Cl)c4)n3)cccc21)NCCO` [Example 197], 3.3 nM; as for `C[C@@H](Oc1ccc(-c2nc(-c3ccc4[nH]cnc4c3)no2)cc1Cl)C(F)(F)F` [Example 200], 3.6 nM.
